From ChEMBL document CHEMBL4699523, “Predicting the Human Hepatic Clearance of Acidic and Zwitterionic Drugs” (J Med Chem, 2020)

How the values were obtained:
[1] = cynomolgus monkey, in vivo, iv, 1 mg/kg
in vitro [2] = details: rat, plasma
Description: Fraction unbound in rat plasma

in vitro [3] = details: human, cryopreserved hepatocytes
in vitro [4] = details: human, plasma
Description: Fraction unbound in human plasma

in vitro [5] = details: cynomolgus monkey, plasma
Description: Fraction unbound in cynomolgus monkey plasma

[6] = rat, in vivo, iv, 1 mg/kg
in vitro [7] = details: dog, MDCK, pH 7.4
Description: Apparent permeability in dog MDCKII-LE cells at pH 7.4

[8] = human, in vivo, iv
Description: Hepatic clearance in human administered through iv dosing

in vivo [9] = details: cynomolgus monkey, blood and plasma, iv
Description: Ratio of drug level in cynomolgus monkey blood to plasma administered through iv dosing by LC-MS/MS analysis

physchem [10] = experiment: physchem
clinical = details: human, blood and plasma, iv
Description: Ratio of drug level in human blood to plasma administered through iv dosing by LC-MS/MS analysis

physchem [11] = details: buffer, pH 7.4
physchem [12] = experiment: physchem; remark: listed apart in the source
in vivo [13] = details: Wistar Hannover, rat, blood and plasma, iv
Description: Ratio of drug level in Wistar Hannover rat blood to plasma administered through iv dosing by LC-MS/MS analysis

Row | SMILES | CLH [1] [mL/min/kg] | fraction unbound (in vitro [2]) | CLint scaled at 2 h, 1 µM (in vitro [3]) [mL/min/kg] | fraction unbound (in vitro [4]) | fraction unbound (in vitro [5]) | CLH [6] [mL/min/kg] | Papp (in vitro [7]) [×10⁻⁶ cm/s] | CLH [8] [mL/min/kg] | blood plasma ratio (in vivo [9]) | pKa at 0.3 h (physchem [10]) | blood plasma ratio (clinical) | logD (physchem [11]) | pKa at 0.3 h (physchem [12]) | blood plasma ratio (in vivo [13])
1 | O=C(O)c1cccc(Cc2cc(Cl)ccc2OCc2ccc(Cl)cc2F)n1 | 19.5 |  | 180 | 0.0024 | 0.00288 |  | 12 | 2 | 0.561 | 5.3 | 0.654 |  |  | 
2 | CCCCc1nc(C)c(CC(=S)N(C)C)c(=O)n1Cc1ccc(-c2ccccc2-c2nnn[nH]2)cc1 | 23 |  | 17 | 0.0288 | 0.0177 |  | 1.2 | 9.6 | 0.588 | 4.3 | 0.726 | 0.9 | 2.7 | 
3 | CN(C)C(=O)CCS[C@H](SCCC(=O)O)c1cccc(/C=C/c2ccc3ccc(Cl)cc3n2)c1 | 10.1 |  | 61 | 0.00142 | 0.00116 |  | 8.5 | 0.91 | 0.581 | 4.4 | 0.655 | 1.5 | 3.8 | 
4 | COc1ccccc1Oc1c(NS(=O)(=O)c2ccc(C(C)(C)C)cc2)nc(-c2ncccn2)nc1OCCO [BOSENTAN] | 33.1 | 0.0121 | 16 | 0.0285 | 0.0422 | 15.9 | 7.4 | 2.2 | 1.19 | 4.9 | 0.668 | 1.2 |  | 0.69
5 | COCc1c(C(C)C)nc(C(C)C)c(/C=C/[C@@H](O)C[C@@H](O)CC(=O)O)c1-c1ccc(F)cc1 [CERIVASTATIN] | 19.7 | 0.0179 | 43 | 0.0176 | 0.0153 | 8.7 |  | 2.7 |  | 4.7 |  |  | 5.6 | 
6 | O=C(O)Cc1ccccc1Nc1c(Cl)cccc1Cl [DICLOFENAC] | 10.8 | 0.00598 | 176 | 0.00376 | 0.0047 | 17.5 |  | 4.1 |  |  |  |  |  | 
7 | CC(C)n1c(/C=C/C(O)CC(O)CC(=O)O)c(-c2ccc(F)cc2)c2ccccc21 (stereo unspecified) [FLUVASTATIN] |  | 0.009 |  | 0.00922 |  |  | 11 |  |  | 4.4 |  | 1.4 |  | 
8 | CC(C)Cc1ccc(C(C)C(=O)O)cc1 (stereo unspecified) [IBUPROFEN] |  |  |  |  |  |  | 33 |  |  |  |  | 1.1 |  | 
9 | CCCCC1=NC2(CCCC2)C(=O)N1Cc1ccc(-c2ccccc2-c2nnn[nH]2)cc1 [IRBESARTAN] | 12.1 |  |  | 0.0155 | 0.0126 |  | 8.6 | 2.1 | 0.55 | 3.5 | 0.603 | 1.3 | 4.6 | 
10 | CC(C)(O)c1ccccc1CC[C@@H](SCC1(CC(=O)O)CC1)c1cccc(/C=C/c2ccc3ccc(Cl)cc3n2)c1 [MONTELUKAST] | 1.3 |  |  | 0.004 | 0.004 |  | 6 | 0.57 |  |  |  |  | 2.3 | 
11 | Nc1[nH]ncc1-c1cc(Cl)ccc1Oc1cc(F)c(S(=O)(=O)Nc2cscn2)cc1Cl [PF-05089771] | 1.8 | 0.0133 | 40 |  | 0.00164 | 6 |  | 0.59 |  | 6 |  | 2.3 | 2.9 | 
12 | CC[C@H](C)C(=O)O[C@H]1C[C@H](O)C=C2C=C[C@H](C)[C@H](CC[C@@H](O)C[C@@H](O)CC(=O)O)[C@H]21 [PRAVASTATIN] | 34.6 | 0.537 | 0.77 | 0.634 | 0.649 | 19.3 | 0.46 | 7.3 | 0.651 | 4.3 | 0.55 | -0.4 |  | 0.595

Further lines, results first:

Row | CLH [1] [mL/min/kg] | fraction unbound (in vitro [2]) | CLint scaled at 2 h, 1 µM (in vitro [3]) [mL/min/kg] | fraction unbound (in vitro [4]) | fraction unbound (in vitro [5]) | CLH [6] [mL/min/kg] | Papp (in vitro [7]) [×10⁻⁶ cm/s] | CLH [8] [mL/min/kg] | blood plasma ratio (in vivo [9]) | pKa at 0.3 h (physchem [10]) | blood plasma ratio (clinical) | logD (physchem [11]) | pKa at 0.3 h (physchem [12]) | blood plasma ratio (in vivo [13]) | SMILES
13 | 8.4 | 0.00302 | 1.6 | 0.00415 | 0.0145 | 5.1 | 0.32 | 0.35 |  |  |  |  |  |  | CCCCC(=O)N(Cc1ccc(-c2ccccc2-c2nnn[nH]2)cc1)[C@H](C(=O)O)C(C)C
14 | 26.3 |  |  | 0.072 | 0.085 |  | 2.5 | 10.8 | 0.73 |  | 0.73 |  |  |  | CC(C)(C)OC(=O)N[C@H]1CCCCC/C=C\[C@@H]2C[C@@]2(C(=O)NS(=O)(=O)C2CC2)NC(=O)[C@@H]2C[C@@H](OC(=O)N3Cc4cccc(F)c4C3)CN2C1=O [DANOPREVIR]
15 | 1.4 |  | 26 | 0.00969 | 0.00771 |  | 4.6 | 3.3 | 0.596 | 4.2 | 0.563 | 1.5 |  |  | CCCCCN(CCCOC)C(=O)[C@@H](CCC(=O)O)NC(=O)c1ccc(Cl)c(Cl)c1 [DEXLOXIGLUMIDE]
16 | 1.5 |  | 23 | 0.0138 | 0.00917 |  | 20 | 0.33 | 0.55 | 4.6 | 0.55 | 3.4 |  |  | CC(C)(C)NC(=O)[C@H]1CC[C@H]2[C@@H]3CC=C4C=C(C(=O)O)CC[C@]4(C)[C@H]3CC[C@]12C [EPRISTERIDE]
17 | 3.5 |  |  | 0.0035 | 0.0015 |  | 5.7 | 0.96 | 0.62 |  | 0.62 |  |  |  | COc1ccc2c(c1)C(=O)N(CCc1ccc(S(=O)(=O)NC(=O)NC3CCCCC3)cc1)C(=O)C2(C)C [GLIQUIDONE]
18 | 5.8 | 0.0013 | 69 | 0.00217 | 0.00179 | 1.2 | 14 | 1.2 |  |  |  |  |  |  | COc1ccc(Cl)cc1C(=O)NCCc1ccc(S(=O)(=O)NC(=O)NC2CCCCC2)cc1 [GLYBURIDE]
19 | 1.2 | 0.0216 | 3.1 | 0.0264 | 0.0148 | 1.3 | 15 | 0.19 | 0.687 |  | 0.792 | -0.6 |  | 0.55 | O=C(c1ccccc1)c1ccc2n1CCC2C(=O)O (stereo unspecified) [KETOROLAC]
20 |  |  |  |  |  |  |  |  |  |  |  | 0.7 |  |  | O=C(O)c1ccc(NC(=O)[C@H](CC2CCCC2)n2cnc(C(F)(F)F)c2)nc1 [PF-04991532]
21 |  |  |  |  |  | 271 |  | 3.2 |  |  |  | 1.1 |  |  | CCN1CC(n2nccc2-c2cc(Cl)ccc2Oc2ccc(S(=O)(=O)Nc3cscn3)cc2C#N)C1 [PF-05150122]
22 |  |  |  |  |  |  | 0.8 | 1.3 |  | 4.1 |  | 0.8 |  |  | O=S(=O)(Nc1nncs1)c1cc(Cl)c(Oc2ccc(C(F)(F)F)cc2-c2ccnnc2)cc1F [PF-05186462]
23 | 30.1 | 0.001 | 37 | 0.002 | 0.002 | 3.1 | 3.9 | 5.7 | 0.56 | 3.6 | 0.56 | 2 |  | 0.55 | Cc1nn(-c2cnc(OCC(C)C)c(Cl)c2)c2ccc(C(=O)NS(C)(=O)=O)cc12 [PF-05241328]
24 | 10.7 |  | 98 | 0.0124 | 0.0124 |  | 19 | 7.4 | 0.679 | 4.4 | 0.851 | 2.3 | 6 |  | CCOc1cc(CC(=O)N[C@@H](CC(C)C)c2ccccc2N2CCCCC2)ccc1C(=O)O [REPAGLINIDE]
25 | 27.9 | 0.0421 | 0.86 | 0.158 | 0.155 | 28.4 | 0.89 | 6.8 | 0.735 | 4.3 | 0.569 | 0.1 |  | 0.588 | CC(C)c1nc(N(C)S(C)(=O)=O)nc(-c2ccc(F)cc2)c1/C=C/[C@@H](O)C[C@@H](O)CC(=O)O [ROSUVASTATIN]
26 | 0.135 |  | 4.7 | 0.00273 | 0.00151 |  |  | 0.03 | 0.687 | 3.4 | 0.699 | -0.1 |  |  | CCO[C@@H](Cc1ccc(OCCc2ccc(OS(C)(=O)=O)cc2)cc1)C(=O)O [TESAGLITAZAR]
